What is called Ki is a measure of affinity in units of concentration, obtained from inhibition or displacement.

Where “and” joins values, the source holds several entries; their conditions need not be identical. Identical values can stand only once.

T1 sequence (P47871 26-477): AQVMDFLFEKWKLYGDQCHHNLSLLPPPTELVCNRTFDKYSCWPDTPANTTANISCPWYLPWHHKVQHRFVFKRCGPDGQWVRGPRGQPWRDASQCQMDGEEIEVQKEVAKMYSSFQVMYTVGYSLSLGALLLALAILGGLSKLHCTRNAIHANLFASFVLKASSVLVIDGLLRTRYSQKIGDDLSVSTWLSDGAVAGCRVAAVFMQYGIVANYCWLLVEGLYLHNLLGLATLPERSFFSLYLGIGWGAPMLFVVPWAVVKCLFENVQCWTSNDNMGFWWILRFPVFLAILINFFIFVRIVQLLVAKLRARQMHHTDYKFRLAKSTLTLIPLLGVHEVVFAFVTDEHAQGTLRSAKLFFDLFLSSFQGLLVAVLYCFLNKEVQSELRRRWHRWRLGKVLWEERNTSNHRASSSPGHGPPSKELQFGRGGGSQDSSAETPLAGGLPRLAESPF

This assay addresses T1, human GCGR (Homo sapiens, UniProt P47871).
T1 construct: expressed in transfected cells; host or cells: HEK293 (hGluc-1HEK), pcDNA3.1, G418 selection
Nature of the assay: Cellular functional assay, cAMP readout (glucagon-stimulated cAMP, LANCE TR-FRET). The format is cell-based. To be noted: HEK293 cells stably expressing full-length human GCGR; glucagon 100 pM; IC50 converted to Ki; read-out: Inhibition of cAMP Ki. The procedure: IC50 Values in Cellular Functional Assays: cAMP Readout
Full-length human GCGR (Accession Number: NM000160) subcloned into pcDNA3.1 was stably transfected into HEK293 cells (hGluc-1HEK) and maintained under G418 selection (500 μg/mL). Cell cultures were maintained in DMEM/F12 media supplemented with 10% FBS and 1% GlutaMax™ Supplement (Available from ThermoFisher Scientific, catalog #35050061). Glucagon stimulated cAMP was quantified using LANCE technology as per manufacturer instructions. On the day of the experiment, spent media was removed and cells were washed with Hank's Buffered Saline solution (HBSS), and cells harvested with non-enzymatic cell dissociation solution, then washed once with HBSS. Cells were re-suspended in stimulation buffer at a concentration of 0.83×10^6 cells/ml and cAMP detection antibody was added. 6 μl/well of this solution was then dispensed in a 384 well plate (cell density 5000 cells/well). Test compound was serially diluted in DMSO and 50 nl were dispensed on top of the cell solution and allowed to incubate for 30 minutes. 6 μl of a 2× glucagon solution (final concentration in assay 100 pM) was then added and the reaction was terminated after 5 minutes with the addition of detection mix. The resulting mixture was incubated, protected from light for 1.5 h. cAMP levels were quantified by TR-FRET in an EnVision instrument against a known standard. IC50's were generated by using a non-linear regression macro driven in Excel and converted to Ki values.
In general terms: In TR-FRET formats the signal depends on donor and acceptor labels being close together.
For `CC(C)CC(c1ccc(C(=O)NCCC(=O)O)cc1)n1ncc2cc(-c3ccc(C(C)(C)C)cc3)ccc21` (single isomer, unassigned) [Compound #37], the Ki was 62 nM and 130 nM. The figure for `CC(C)CC(c1ccc(C(=O)NCCC(=O)O)cc1)n1ncc2cc(-c3ccc(C(C)(C)C)cc3)ccc21` (single isomer, unassigned) [Compound #163] is 465 nM; for `CC(C)CC(c1ccc(C(=O)NCCC(=O)O)cc1)n1ncc2cc(-c3ccc(C(C)(C)C)cc3)ccc21` (stereo not drawn) [Compound #1, 3-(4-(1-(5-(4-(tert-Butyl)phenyl)-1H-indazol-1-yl)-3-methylbutyl)benzamido)propanoic acid] it is 90 nM and 159 nM. The figure for `CC(C)CC(c1ccc(C(=O)NCCC(=O)O)nc1)n1cc2cc(-c3ccc(C(C)(C)C)cc3)ccc2n1` (stereo not drawn) [Compound #2] is 700 nM. To `CC(C)CC(c1ccc(C(=O)NCCC(=O)O)cc1)n1ncc2cc(-c3ccccc3)ccc21` (stereo not drawn) [Compound #4] belongs 1100 nM; to `CC(C)CC(c1ccc(C(=O)NCCC(=O)O)cc1)n1ncc2cc(-c3ccc(F)cc3)ccc21` (stereo not drawn) [Compound #5], 600 nM; to `CC(C)CC(c1ccc(C(=O)NCCC(=O)O)cc1)n1ncc2cc(-c3ccc4ncccc4c3)ccc21` (stereo not drawn) [Compound #7], 800 nM. Regarding `Cc1cc(Cl)ccc1-c1ccc2nn(C(CCC(F)(F)F)c3ccc(C(=O)NCCC(=O)O)cc3)cc2c1` (stereo not drawn) [Compound #8, 3-[[4-[1-[5-(4-Chloro-2-methyl-phenyl)indazol-2-yl]-4,4,4-trifluorobutyl]benzoyl]amino]propanoic acid], the inhibition constant Ki was 59 nM. To `CC(C)CC(c1ccc(C(=O)NCCC(=O)O)cc1)n1ncc2cc(-c3ccc(Cl)cc3Cl)ccc21` (stereo not drawn) [Compound #9, 3-(4-(1-(5-(2,4-Dichlorophenyl)-1H-indazol-1-yl)-3-methylbutyl)benzamido)propanoic acid] belongs 190 nM; to `O=C(O)CCNC(=O)c1ccc(C(CCC(F)(F)F)n2ncc3cc(-c4cc5ccccc5o4)ccc32)cc1` (stereo not drawn) [Compound #11, 3-[[4-[1-[5-(Benzofuran-2-yl)indazol-1-yl]-4,4,4-trifluorobutyl]benzoyl]amino]propanoic acid], 175 nM; to `CC(C)CC(c1ccc(C(=O)NCCC(=O)O)cc1)n1ncc2cc(-c3cnn(C)c3)ccc21` (stereo not drawn) [Compound #12, 3-(4-(3-Methyl-1-(5-(1-methyl-1H-pyrazol-4-yl)-1H-indazol-1-yl)butyl)benzamido)propanoic acid], 2300 nM. To `CC(C)CC(c1ccc(C(=O)NCCC(=O)O)cc1)n1cc2cc(-c3cc4ccccc4o3)ccc2n1` (stereo not drawn) [Compound #13] belongs 76 nM.

As for `Cc1cc(Cl)ccc1-c1ccc2c(cnn2C(CC(C)C)c2ccc(C(=O)NCCC(=O)O)nc2)c1` (stereo not drawn) [Compound #14, 3-(5-(1-(5-(4-Chloro-2-methylphenyl)-1H-indazol-1-yl)-3-methylbutyl)picolinamido)propanoic acid], the Ki worked out at 447 nM. The figure for `O=C(O)CCNC(=O)c1ccc(C(CCC(F)(F)F)n2cc3cc(-c4ccc(C(F)(F)F)cc4Cl)ccc3n2)cc1` (stereo not drawn) [Compound #16, 3-[[4-[1-[5-[2-Chloro-4-(trifluoromethyl)phenyl]indazol-2-yl]-4,4,4-trifluorobutyl]benzoyl]amino]propanoic acid] is 65 nM; for `CC(C)CCn1cc(-c2ccc3nn(C(CC(C)C)c4ccc(C(=O)NCCC(=O)O)cc4)cc3c2)cn1` (stereo not drawn) [Compound #17] it is greater than 5200 nM. The figure for `Cc1c(-c2ccc(C(F)(F)F)cc2Cl)ccc2nn(C(CC(C)C)c3ccc(C(=O)NCCC(=O)O)cc3)cc12` (stereo not drawn) [Compound #18, 3-(4-(1-(5-(2-Chloro-4-(trifluoromethyl)phenyl)-4-methyl-2H-indazol-2-yl)-3-methylbutyl)benzamido)propanoic acid] is 14 nM and 44 nM; for `Cc1cc(C(F)(F)F)ccc1-c1ccc2nn(C(CC(C)C)c3ccc(C(=O)NCCC(=O)O)nc3)cc2c1` (stereo not drawn) [Compound #19] it is 47 nM and 49 nM; for `Cc1cc(Cl)ccc1-c1ccc2nn(C(CC(C)C)c3ccc(C(=O)NCCC(=O)O)cc3)cc2c1C` (stereo not drawn) [Compound #20, 3-(4-(1-(5-(4-Chloro-2-methylphenyl)-4-methyl-2H-indazol-2-yl)-3-methylbutyl)benzamido)propanoic acid] it is 25 nM.

As for `Cc1cc(C(F)(F)F)ccc1-c1ccc2c(cnn2C(CC(C)C)c2ccc(C(=O)NCCC(=O)O)cc2)c1C` (stereo not drawn) [Compound #21, 3-(4-(3-Methyl-1-(4-methyl-5-(2-methyl-4-(trifluoromethyl)phenyl)-1H-indazol-1-yl)butyl)benzamido)propanoic acid], the inhibitory constant (Ki) was found to be 92 nM. The figure for `CCCC(c1ccc(C(=O)NCCC(=O)O)cc1)n1cc2cc(-c3ccc(C(C)(C)C)cc3)ccc2n1` (stereo not drawn) [Compound #22, 3-(4-(1-(5-(4-(tert-Butyl)phenyl)-2H-indazol-2-yl)butyl)benzamido)propanoic acid] is 800 nM; for `CC(C)CCC(c1ccc(C(=O)NCCC(=O)O)cc1)n1ncc2cc(-c3ccc(C(C)(C)C)cc3)ccc21` (stereo not drawn) [Compound #23, 3-(4-(1-(5-(4-(tert-Butyl)phenyl)-1H-indazol-1-yl)-4-methylpentyl)benzamido)propanoic acid] it is 144 nM; for `CC(C)(C)c1ccc(-c2ccc3c(cnn3C(CC3CCCCC3)c3ccc(C(=O)NCCC(=O)O)cc3)c2)cc1` (stereo not drawn) [Compound #24, 3-(4-(1-(5-(4-(tert-Butyl)phenyl)-1H-indazol-1-yl)-2-cyclohexylethyl)benzamido)propanoic acid] it is 114 nM. For the compound `Cc1cc2c(cnn2C(CC(C)C)c2ccc(C(=O)NCCC(=O)O)cc2)cc1-c1ccc(C(F)(F)F)cc1` (stereo not drawn) [Compound #25, 3-[[4-[3-Methyl-1-[6-methyl-5-[4-(trifluoromethyl)phenyl]indazol-1-yl]butyl]benzoyl]amino]propanoic acid], the inhibition constant Ki was 102 nM. The figure for `CCCCCCC(c1ccc(C(=O)NCCC(=O)O)cc1)n1cc2cc(-c3ccc(C(F)(F)F)cc3)ccc2n1` (stereo not drawn) [Compound #26] is 45 nM. To `COc1c(-c2ccc(C(F)(F)F)cc2C)ccc2c1cnn2C(CC(C)C)c1ccc(C(=O)NCCC(=O)O)cc1` (stereo not drawn) [Compound #29, 3-(4-(1-(4-Methoxy-5-(2-methyl-4-(trifluoromethyl)phenyl)-1H-indazol-1-yl)-3-methylbutyl)benzamido)propanoic acid] belongs 60 nM; to `Cc1cc(C(F)(F)F)ccc1-c1cc2cn(C(CC(C)C)c3ccc(C(=O)NCCC(=O)O)cc3)nc2cc1Cl` (stereo not drawn) [Compound #30, 3-[[4-[1-[6-Chloro-5-[2-methyl-4-(trifluoromethyl)phenyl]indazol-2-yl]-3-methyl-butyl]benzoyl]amino]propanoic acid], 44 nM; to `CC(C)CC(c1ccc(C(=O)NCCC(=O)O)nc1)n1cc2cc(-c3ccc(C(F)(F)F)cc3Cl)c(Cl)cc2n1` (stereo not drawn) [Compound #33, 3-[[5-[1-[6-Chloro-5-[2-chloro-4-(trifluoromethyl)phenyl]indazol-2-yl]-3-methyl-butyl]pyridine-2-carbonyl]amino]propanoic acid], 70 nM. As for `CC(C)CC(c1ccc(C(=O)NCCC(=O)O)cc1)n1cc2cc(-c3ccc(C(C)(C)C)cc3)ccc2n1` (stereo not drawn) [Compound #34, 3-(4-(1-(5-(4-(tert-butyl)phenyl)-2H-indazol-2-yl)-3-methylbutyl)benzamido)propanoic acid], the Ki is 86 nM.

For `CC(C)CC(c1ccc(C(=O)NCCC(=O)O)nc1)n1ncc2cc(-c3ccc(C(C)(C)C)cc3)ccc21` (stereo not drawn) [Compound #36, 3-(5-(1-(5-(4-(tert-Butyl)phenyl)-1H-indazol-1-yl)-3-methylbutyl)picolinamido)propanoic acid], the Ki is 430 nM.

Regarding `Cc1cc(Cl)ccc1-c1ccc2c(cnn2C(CC(C)C)c2ccc(C(=O)NCCC(=O)O)cc2)c1` (stereo not drawn) [Compound #39, 3-(4-(1-(5-(4-Chloro-2-methylphenyl)-1H-indazol-1-yl)-3-methylbutyl)benzamido)propanoic acid], the inhibition constant (Ki) came out at 210 nM. As to `Cc1cc(Cl)ccc1-c1ccc2c(cnn2C(CCC(F)(F)F)c2ccc(C(=O)NCCC(=O)O)cc2)c1` (stereo not drawn) [Compound #40, 3-[[4-[1-[5-(4-Chloro-2-methyl-phenyl)indazol-1-yl]-4,4,4-trifluorobutyl]benzoyl]amino]propanoic acid], the Ki is 490 nM.

As to `CC(C)CC(c1ccc(C(=O)NCCC(=O)O)cc1)n1ncc2cc(-c3ccc(C(F)(F)F)cc3Cl)ccc21` (stereo not drawn) [Compound #41, 3-(4-(1-(5-(2-Chloro-4-(trifluoromethyl)phenyl)-1H-indazol-1-yl)-3-methylbutyl)benzamido)propanoic acid], the Ki was determined as 86 nM. To `CC(C)CC(c1ccc(C(=O)NCCC(=O)O)nc1)n1ncc2cc(-c3ccc(C(F)(F)F)cc3Cl)ccc21` (stereo not drawn) [Compound #43, 3-(5-(1-(5-(2-Chloro-4-(trifluoromethyl)phenyl)-1H-indazol-1-yl)-3-methylbutyl)picolinamido)propanoic acid] belongs 175 nM.

The values are drawn from US10000473B2, “Indazole derivatives useful as glucagon receptor antagonists” (Janssen Pharmaceutica NV, priority 2016, dated 2018).
